Test results: US20230057602A1, “METHODS OF TREATMENT WITH ANTIBODIES AGAINST BCMA AND CD3” (BRISTOL-MYERS SQUIBB COMPANY, priority 2019, published 2023)

Assays:
Format in all cases: cell-based, human
[1] = test system: MM1S BCMA-expressing myeloma cell line co-cultured with T-cells; experiment: CC-93269-induced cytokine secretion, T-cell co-culture with MM1S; conditions: 1 μM DEX vs DMSO control, highest concentration of CC-93269, 72 hours, 3 donors
BCMA+ tumour cell lines = experiment: CC-93269-induced redirected lysis of BCMA+ tumour cell lines (overall); conditions: co-treatment with CC-93269
Method: The cocultures were incubated at 37° C. with 5% CO2. After 72 hours of incubation, culture supernatants were harvested and stored at −80° C. The cells were labeled with Live/Dead Fixable Aqua Dead Cell Stain, according to the manufacturer's instructions for 30 minutes at RT. Subsequently, cells were stained with antibodies against the following cell surface markers: CD2, CD3, CD4, CD8, CD69, CD25, HLA-DR, and CD154 in a final volume of 50 μL of flow staining buffer. After staining for cell surface molecules, the cells were washed once with 150 μL flow staining buffer, resuspended in 50 μL of BD Cytofix fixation buffer, and incubated for 30 minutes at RT. Cells were washed with 150 μL of flow staining buffer and resuspended in a final volume of 50 μL of flow staining buffer for analysis on an IQUE Screener plus instrument (Intellicyt, Albuquerque, N. Mex.). […] The IC50 values were calculated using non-linear regression analysis, sigmoidal dose-response using GraphPad Prism (version 5.0) software.

[2] = test system: KMS12-PE BCMA-expressing myeloma cell line co-cultured with T-cells; experiment: CC-93269-induced cytokine secretion, T-cell co-culture with KMS12-PE; conditions: 1 μM DEX vs DMSO control, highest concentration of CC-93269, 72 hours, 3 donors
[3] = test system: BCMA-expressing tumour cell lines co-cultured with T-cells; experiment: CC-93269-mediated cytokine release across the four co-cultures; conditions: 1 μM DEX vs DMSO control, highest concentration of CC-93269
[4] = test system: H929 BCMA-expressing myeloma cell line co-cultured with T-cells; experiment: CC-93269-induced cytokine secretion, T-cell co-culture with H929; conditions: 1 μM DEX vs DMSO control, highest concentration of CC-93269, 72 hours, 3 donors
[5] = test system: SKMM2 BCMA-expressing myeloma cell line co-cultured with T-cells; experiment: CC-93269-induced cytokine secretion, T-cell co-culture with SKMM2; conditions: 1 μM DEX vs DMSO control, highest concentration of CC-93269, 72 hours, 3 donors

Question: `C[C@@H]1C[C@H]2[C@@H]3CCC4=CC(=O)C=C[C@]4(C)[C@@]3(F)[C@@H](O)C[C@]2(C)[C@@]1(O)C(=O)CO` [Dexamethasone, dexamethasone] was tested. Which “% Reduction of CC-93269-induced IL-2 secretion, Mean” value [1] did it give?
Answer: The value was 57.6%.

Question: And the “% Reduction of CC-93269-induced TNF-α secretion, Mean” value [1]?
Answer: The value was 50.3%.

Question: What about the “effect of dexamethasone on CC-93269-induced redirected lysis / cytotoxic activity” value (BCMA+ tumour cell lines) of the same compound?
Answer: Its value is “minimally affected”.

Question: And the “effect of dexamethasone on CC-93269-induced redirected lysis / cytotoxic activity” value (BCMA+ tumour cell lines; listed as dexamethasone)?
Answer: Its value is “minimal suppressive impact”.

Question: What about the “% Reduction of CC-93269-induced IL-2 secretion, Mean” value [2] of the same compound?
Answer: Its value is 48.3%.

Question: What about the “% Reduction of CC-93269-induced TNF-α secretion, Mean” value [2] of the same compound?
Answer: Its value is 53.9%.

Question: And the “lowering of CC-93269-mediated release of IL-2” value [3]?
Answer: The value was 48.3-74.1%.

Question: What about the “lowering of CC-93269-mediated release of TNF-α” value [3] of the same compound?
Answer: The value was 46.3-61.8%.

Question: What about the “% Reduction of CC-93269-induced IL-2 secretion, Mean” value [4] of the same compound?
Answer: The value was 74.1%.

Question: What about the “% Reduction of CC-93269-induced TNF-α secretion, Mean” value [4] of the same compound?
Answer: Its value is 61.8%.

Question: What about the “% Reduction of CC-93269-induced IL-2 secretion, Mean” value [5] of the same compound?
Answer: The value was 56.5%.

Question: What about the “% Reduction of CC-93269-induced TNF-α secretion, Mean” value [5] of the same compound?
Answer: The value was 46.3%.
